# Reference: patent EP4635500A1, “THERAPEUTIC AGENT FOR BACTERIAL INFECTION” (Sumitomo Pharma Co., Ltd., priority 2022, dated 2024)
# Like-named read-outs stand apart in the source and are kept apart here.
# Tested on: P. aeruginosa
# Assay: MIC, broth microdilution, CDC/FDA Antibiotic Resistance Isolate Bank (Example 7, Tables 10, 15)
# Type: cell-based
# Settings: Pseudomonas aeruginosa, read-out: MIC
smiles,measurement,setting,value
"CN(C)c1cc(NC(=O)CNC(C)(C)C)c(O)c2c1C[C@H]1C[C@H]3[C@H](N(C)C)C(O)=C(C(N)=O)C(=O)[C@@]3(O)C(O)=C1C2=O [Tigecycline, tigecycline]",MIC,"P. aeruginosa KUB No. 5666, AR Bank # 23",8 µg/mL
same,MIC,"P. aeruginosa KUB No. 5667, AR Bank # 234",2 µg/mL
same,MIC,"P. aeruginosa KUB No. 5668, AR Bank # 235",8 µg/mL
same,MIC,"P. aeruginosa KUB No. 5669, AR Bank # 236",4 µg/mL
same,MIC,"P. aeruginosa KUB No. 5670, AR Bank # 237",2 µg/mL
same,MIC,"P. aeruginosa KUB No. 5671, AR Bank # 238",4 µg/mL
same,MIC,"P. aeruginosa KUB No. 5672, AR Bank # 239",4 µg/mL
same,MIC,"P. aeruginosa KUB No. 5673, AR Bank # 240",8 µg/mL
same,MIC,"P. aeruginosa KUB No. 5674, AR Bank # 241",4 µg/mL
same,MIC,"P. aeruginosa KUB No. 5675, AR Bank # 242",2 µg/mL
same,MIC,"P. aeruginosa KUB No. 5676, AR Bank # 243",1 µg/mL
same,MIC,"P. aeruginosa KUB No. 5677, AR Bank # 244",16 µg/mL
same,MIC,"P. aeruginosa KUB No. 5678, AR Bank # 245",16 µg/mL
same,MIC,"P. aeruginosa KUB No. 5679, AR Bank # 246",4 µg/mL
same,MIC,"P. aeruginosa KUB No. 5680, AR Bank # 247",4 µg/mL
same,MIC,"P. aeruginosa KUB No. 5681, AR Bank # 248",2 µg/mL
same,MIC,"P. aeruginosa KUB No. 5682, AR Bank # 249",4 µg/mL
same,MIC,"P. aeruginosa KUB No. 5684, AR Bank # 251",4 µg/mL
same,MIC,"P. aeruginosa KUB No. 5685, AR Bank # 252",0.5 µg/mL
same,MIC,"P. aeruginosa KUB No. 5686, AR Bank # 253",2 µg/mL
same,MIC,"P. aeruginosa KUB No. 5688, AR Bank # 255",2 µg/mL
same,MIC,"P. aeruginosa KUB No. 5690, AR Bank # 257",8 µg/mL
same,MIC,"P. aeruginosa KUB No. 5691, AR Bank # 258",2 µg/mL
same,MIC,"P. aeruginosa KUB No. 5692, AR Bank # 259",4 µg/mL
same,MIC,"P. aeruginosa KUB No. 5693, AR Bank # 260",2 µg/mL
same,MIC,"P. aeruginosa KUB No. 5694, AR Bank # 261",8 µg/mL
same,MIC,"P. aeruginosa KUB No. 5695, AR Bank # 262",2 µg/mL
same,MIC,"P. aeruginosa KUB No. 5696, AR Bank # 263",1 µg/mL
same,MIC,"P. aeruginosa KUB No. 5697, AR Bank # 264",2 µg/mL
same,MIC,"P. aeruginosa KUB No. 5698, AR Bank # 265",8 µg/mL
same,MIC,"P. aeruginosa KUB No. 5699, AR Bank # 266",8 µg/mL
same,MIC,"P. aeruginosa KUB No. 5700, AR Bank # 267",8 µg/mL
same,MIC,"P. aeruginosa KUB No. 5701, AR Bank # 268",2 µg/mL
same,MIC,"P. aeruginosa KUB No. 5702, AR Bank # 269",4 µg/mL
same,MIC,"P. aeruginosa KUB No. 5703, AR Bank # 270",8 µg/mL
same,MIC,"P. aeruginosa KUB No. 5704, AR Bank # 271",4 µg/mL
same,MIC,"P. aeruginosa KUB No. 5705, AR Bank # 272",2 µg/mL
same,MIC,"P. aeruginosa KUB No. 5747, AR Bank # 351",8 µg/mL
same,MIC,"P. aeruginosa KUB No. 5748, AR Bank # 352",8 µg/mL
same,MIC,"P. aeruginosa KUB No. 5749, AR Bank # 353",2 µg/mL
same,MIC,"P. aeruginosa KUB No. 5750, AR Bank # 354",4 µg/mL
same,MIC,"P. aeruginosa KUB No. 5751, AR Bank # 355",8 µg/mL
same,MIC,"P. aeruginosa KUB No. 5752, AR Bank # 356",2 µg/mL
same,MIC,"P. aeruginosa KUB No. 5753, AR Bank # 357",8 µg/mL
same,MIC,"P. aeruginosa KUB No. 5754, AR Bank # 358",4 µg/mL
same,MIC,"P. aeruginosa KUB No. 5755, AR Bank # 359",4 µg/mL
same,MIC,"P. aeruginosa KUB No. 5756, AR Bank # 360",4 µg/mL
same,MIC,"P. aeruginosa KUB No. 5785, AR Bank # 439",4 µg/mL
same,MIC,"P. aeruginosa KUB No. 5786, AR Bank # 440",8 µg/mL
same,MIC,"P. aeruginosa KUB No. 5787, AR Bank # 441",4 µg/mL
same,MIC,"P. aeruginosa KUB No. 5788, AR Bank # 443",4 µg/mL
same,MIC,"P. aeruginosa KUB No. 5789, AR Bank # 444",4 µg/mL
same,MIC,"P. aeruginosa KUB No. 5790, AR Bank # 445",4 µg/mL
same,MIC,"P. aeruginosa KUB No. 5793, AR Bank # 449",4 µg/mL
same,MIC,"P. aeruginosa KUB No. 5798, AR Bank # 455",1 µg/mL
same,MIC,"P. aeruginosa KUB No. 5799, AR Bank # 456",8 µg/mL
same,MIC,"P. aeruginosa KUB No. 5800, AR Bank # 457",2 µg/mL
same,MIC,"P. aeruginosa KUB No. 5801, AR Bank # 458",8 µg/mL
same,MIC,"P. aeruginosa KUB No. 5802, AR Bank # 459",4 µg/mL
same,MIC,"P. aeruginosa KUB No. 5804, AR Bank # 862",8 µg/mL
same,MIC,"P. aeruginosa KUB No. 5805, AR Bank # 863",8 µg/mL
same,MIC,"P. aeruginosa KUB No. 5806, AR Bank # 864",2 µg/mL
same,MIC,"P. aeruginosa KUB No. 5813, AR Bank # 508",0.016 µg/mL
same,MIC,"P. aeruginosa KUB No. 5814, AR Bank # 509",0.008 µg/mL
same,MIC,"P. aeruginosa KUB No. 5815, AR Bank # 510",0.002 µg/mL
same,MIC,"P. aeruginosa KUB No. 5816, AR Bank # 511",0.004 µg/mL
same,MIC,"P. aeruginosa KUB No. 5817, AR Bank # 512",0.016 µg/mL
same,MIC,"P. aeruginosa KUB No. 5818, AR Bank # 513",0.008 µg/mL
same,MIC,"P. aeruginosa KUB No. 5819, AR Bank # 514",0.004 µg/mL
same,MIC,"P. aeruginosa KUB No. 5820, AR Bank # 515",0.008 µg/mL
same,MIC,"P. aeruginosa KUB No. 5821, AR Bank # 516",0.004 µg/mL
same,MIC,"P. aeruginosa KUB No. 5823, AR Bank # 518",0.016 µg/mL
same,MIC,"P. aeruginosa KUB No. 5831, AR Bank # 526",0.004 µg/mL
same,MIC,"P. aeruginosa KUB No. 5832, AR Bank # 527",0.002 µg/mL
same,MIC,"P. aeruginosa KUB No. 5833, AR Bank # 528",0.004 µg/mL
same,MIC,"P. aeruginosa KUB No. 5834, AR Bank # 529",0.004 µg/mL
